ChEMBL document CHEMBL1201862, “PubChem BioAssay data set” (2004)
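Each compound was tested at five concentrations against cells in 96-well plates for 48 hours. GI50 marks 50% less growth.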 Active and inactive are the calls of the source. No stated cut-off is given here; in the data, active = GI50 up to about 1.1 µM and inactive = higher. Where a SMILES comes first, the peptide text is derived from it. Peptide text beside a SMILES is read from it. * marks the point of attachment. Boc = CC(C)(C)OC(=O)*

What was measured:
Assay in all cases: DTP human tumour cell line panel, 48 h
CCRF-CEM = test system: CCRF-CEM
DMS-114 = test system: DMS-114
HOP-92 = test system: HOP-92
HT-29 = test system: HT-29
K562 = test system: K562
KM12 = test system: KM12
OVCAR-5 = test system: OVCAR-5
SF-539 = test system: SF-539
SK-MEL-5 = test system: SK-MEL-5
SNB-19 = test system: SNB-19
SW-620 = test system: SW-620
U-251 = test system: U-251
COLO 205 = test system: COLO 205
DU-145 = test system: DU-145
MDA-MB-435 = test system: MDA-MB-435
MDA-N = test system: MDA-N
NCI/ADR-RES = test system: NCI/ADR-RES
PC-3 = test system: PC-3
T47D = test system: T47D
DMS-273 = test system: DMS-273

Measured: GI50

CC1=C(C(=O)Nc2ccccc2C)C(c2ccco2)C(C(=O)Nc2ccccc2C)=C(C)N1C
inactive: CCRF-CEM 50 µM | DMS-114 > 100 µM | HOP-92 > 100 µM | HT-29 > 100 µM | K562 85.5 µM | KM12 > 100 µM | OVCAR-5 > 100 µM | SF-539 > 100 µM | SK-MEL-5 > 100 µM | SNB-19 > 100 µM | SW-620 > 100 µM | U-251 > 100 µM

O=C(N/C(=C\c1cc(Cl)ccc1Cl)c1nc2cc(Cl)ccc2[nH]1)c1ccccc1
inactive: CCRF-CEM 17 µM | COLO 205 18.8 µM | DMS-114 15.4 µM | HOP-92 11.6 µM | HT-29 16.4 µM | K562 15.5 µM | KM12 15.4 µM | OVCAR-5 21.2 µM | SF-539 20.1 µM | SK-MEL-5 13.2 µM | SNB-19 22.4 µM | SW-620 16.9 µM | U-251 16.1 µM

CCN(CCCl)c1cc(CN(C)C)cc(NC(=O)c2ccc(C(=O)Nc3cccc(N(CCCl)NN)c3)cc2)c1
active: CCRF-CEM < 0.01 µM | COLO 205 0.0635 µM | DU-145 0.0234 µM | HOP-92 0.0789 µM | HT-29 0.0154 µM | K562 0.014 µM | KM12 0.123 µM | MDA-MB-435 0.016 µM | MDA-N 0.0301 µM | OVCAR-5 0.182 µM | PC-3 0.0142 µM | SF-539 0.16 µM | SK-MEL-5 0.0461 µM | SNB-19 < 0.01 µM | SW-620 < 0.01 µM | T47D 0.0612 µM | U-251 0.0101 µM
inactive: NCI/ADR-RES 1.97 µM

O=C(O)C1=Cc2cccc3cccc(c23)C1=O
inactive: CCRF-CEM > 100 µM | COLO 205 > 100 µM | DMS-114 > 100 µM | DMS-273 > 100 µM | HT-29 > 100 µM | K562 > 100 µM | KM12 > 100 µM | OVCAR-5 > 100 µM | SK-MEL-5 > 100 µM | SNB-19 > 100 µM | SW-620 > 100 µM | U-251 > 100 µM

C/C(CC(=O)Nc1ccc(C)cc1C)=N/N=C(N)N
inactive: CCRF-CEM > 100 µM | COLO 205 > 100 µM | DMS-114 > 100 µM | DMS-273 > 100 µM | HOP-92 > 100 µM | HT-29 > 100 µM | K562 > 100 µM | KM12 > 100 µM | OVCAR-5 > 100 µM | SF-539 > 100 µM | SK-MEL-5 > 100 µM | SW-620 > 100 µM | U-251 > 100 µM

CC(NC(=O)OC(C)(C)C)C(=O)NC(Cc1ccccc1)C(=O)NCC(=O)O (stereo not drawn) (Boc-Ala-Phe-Gly-OH; configuration not given here)
inactive: CCRF-CEM > 100 µM | COLO 205 > 100 µM | DU-145 > 100 µM | HOP-92 > 100 µM | HT-29 > 100 µM | K562 > 100 µM | KM12 > 100 µM | MDA-MB-435 > 100 µM | MDA-N > 100 µM | NCI/ADR-RES > 100 µM | OVCAR-5 > 100 µM | PC-3 > 100 µM | SF-539 > 100 µM | SK-MEL-5 > 100 µM | SNB-19 > 100 µM | SW-620 > 100 µM | T47D > 100 µM | U-251 > 100 µM

CCC(C)C1NC(=O)C2CCCN2C(=O)CNC(=O)C(C)NC(=O)C(Cc2ccccc2)NC(=O)C(C(C)C)NC1=O (stereo not drawn) (cyclo(GPIVFA); configuration not given here)
inactive: COLO 205 > 100 µM | DMS-114 > 100 µM | HOP-92 > 100 µM | HT-29 > 100 µM | KM12 61.2 µM | OVCAR-5 > 100 µM | SF-539 > 100 µM | SK-MEL-5 > 100 µM | SNB-19 > 100 µM | SW-620 > 100 µM | U-251 > 100 µM

C/C(=C\c1csc(C)n1)[C@@H]1C[C@@H]2O[C@]2(C)CCC[C@H](C)[C@H](O)[C@@H](C)C(=O)C(C)(C)[C@@H](O)CC(=O)O1 [PATUPILONE]
active: CCRF-CEM < 0.0001 µM | COLO 205 < 0.0001 µM | DU-145 < 0.0001 µM | HOP-92 < 0.0001 µM | HT-29 < 0.0001 µM | K562 < 0.0001 µM | KM12 < 0.0001 µM | MDA-MB-435 < 0.0001 µM | MDA-N < 0.0001 µM | NCI/ADR-RES < 0.0001 µM | OVCAR-5 < 0.0001 µM | PC-3 < 0.0001 µM | SF-539 < 0.0001 µM | SK-MEL-5 < 0.0001 µM | SNB-19 < 0.0001 µM | SW-620 < 0.0001 µM | T47D < 0.0001 µM | U-251 < 0.0001 µM

Cc1cc2cc3c(C)cc(=O)oc3c(C)c2o1 [TRIOXSALEN]
inactive: CCRF-CEM > 100 µM | COLO 205 > 100 µM | DU-145 > 100 µM | HOP-92 > 100 µM | HT-29 > 100 µM | K562 > 100 µM | KM12 > 100 µM | MDA-MB-435 > 100 µM | MDA-N > 100 µM | NCI/ADR-RES > 100 µM | OVCAR-5 > 100 µM | PC-3 > 100 µM | SF-539 > 100 µM | SK-MEL-5 > 100 µM | SNB-19 > 100 µM | SW-620 > 100 µM | T47D > 100 µM | U-251 > 100 µM
